Assay results as given in ChEMBL document CHEMBL5661943, “ASAP - In vitro antiviral effect” (2024).
Several values for one entry are separate records, joined by “and”; a condition that tells them apart may be missing. Equal values may be shown once.

Legend:
Zika virus [1] = test: (§1) Functional CPE-based assay to measure dose dependent changes in antiviral-drug inhibitory efficacy against Zika virus MR766 in Vero E6 miRFP670 cells. Cells are treated with antiviral candidates that are serially diluted. EC50 is reported via analysis of MTS assay as a readout of CPE. The assay has been performed by KU Leuven.; type: organism-based, Chlorocebus sabaeus, Vero C1008; details: Zika virus; for EC50: Vero C1008
dengue virus type 2 [2] = test: Functional assay to measure dose dependent changes in antiviral-drug inhibitory efficacy against Dengue virus type 2 New Guinea C in Vero E6 miRFP670 cells (cotreated with P-gp inhibitor, CP100356). Cells are treated with antiviral candidates that are serially diluted, following infection, cells are fixed. EC50 is reported via analysis of fluorescence intensity using high-content imager. The …; type: organism-based, Chlorocebus sabaeus, Vero C1008; details: for EC90: Baseline response 0 %, Maximum response 100 %, P-gp concentration 500 nM, P-gp inhibitor CP100356
dengue virus type 2 [3] = test: as §1, with “Dengue” for “Zika”, “type 2 New Guinea C” for “MR766”, “Huh7” for “Vero E6 miRFP670”, “MTT/MTS” for “MTS”, “National Institute of Allergy and Infectious Diseases.” for “KU Leuven.”; type: organism-based, Homo sapiens; details: Huh-7
Zika virus [4] = test: EC50 is reported via analysis of immunofluorescence staining. The assay has been performed by Icahn School of Medicine at Mount Sinai.; type: functional, organism-based, Chlorocebus sabaeus, VeroE6/TMPRSS2
dengue virus type 2 [5] = test: (§2) Functional immunofluorescence assay to measure dose dependent changes in antiviral-drug inhibitory efficacy against Dengue virus type 2 Thailand/16681/84 in Vero E6/TMPRSS2 cells (cotreated with P-gp inhibitor, Elacridar). Cells are treated with antiviral candidates that are serially diluted, following infection, cells are fixed. EC50 is reported via analysis of immunofluorescence staining. The assay has been performed by Icahn School of Medicine at Mount Sinai.; type: organism-based, Chlorocebus sabaeus, VeroE6/TMPRSS2
Zika virus [6] = test: as §1, with “cells (cotreated with P-gp inhibitor, CP100356).” for “cells.”; type: organism-based, Chlorocebus sabaeus, Vero C1008; details: Zika virus, Vero C1008
Zika virus [7] = test: as §2, with “Zika” for “Dengue”, “PRVABC59” for “type 2 Thailand/16681/84”, “cells.” for “cells (cotreated with P-gp inhibitor, Elacridar).”; type: organism-based, Chlorocebus sabaeus; details: for EC50: VeroE6/TMPRSS2
dengue virus type 2 [8] = test: as §2, with “cells.” for “cells (cotreated with P-gp inhibitor, Elacridar).”; type: organism-based, Chlorocebus sabaeus

## CC1(C)Cc2sc(NC(=O)Cc3ccc(S(N)(=O)=O)cc3)c(C#N)c2CN1CC1CCCCC1
Zika virus [1]
  EC50: > 50 µM
Zika virus [1]; Vero C1008, Maximum measured -0.002 %, Minimum measured -8.758 %
  EC90: > 50 µM
Dengue virus type 2 [2]; Dengue virus, Vero C1008
  EC50: < 0.391 µM
Dengue virus type 2 [2]; Dengue virus, Vero C1008, Hill slope -4.912, Maximum measured 6.91 %, Minimum measured 0.005 %, R squared 0.81
  EC90: < 0.391 µM
Dengue virus type 2 [3]
  EC50: < 0.01 µM

## COc1cc(N[C@@H](C(=O)N2CCc3ccc(OC(F)(F)F)cc32)c2ccc(Cl)cc2)cc(OCCCC(=O)O)c1
Zika virus [4]; Zika virus, VeroE6/TMPRSS2
  EC50: > 10 µM
Zika virus [4]; Zika virus, VeroE6/TMPRSS2, Maximum measured 96.7 %, Minimum measured 47.971 %, P-gp concentration 2 uM, P-gp inhibitor Elacidar
  EC90: > 10 µM
Zika virus [4]; Zika virus, VeroE6/TMPRSS2, Maximum measured 158.114 %, Minimum measured 73.503 %, P-gp concentration 2 uM, P-gp inhibitor Elacidar
  EC90: > 10 µM
Zika virus [4]; Zika virus, VeroE6/TMPRSS2, Baseline response 0 %, Hill slope -19.172, Maximum measured 90.933 %, Maximum response 60 %, Minimum measured 7.507 %, P-gp concentration 2 uM, R squared 0.342, P-gp inhibitor Elacidar
  EC90: > 16.7 µM
Zika virus [4]; veroe6/tmprss2
  EC50: 15.1 µM
Dengue virus type 2 [5]; Baseline response 0 %, Hill slope 0.035, Maximum measured 8.614 %, Maximum response 100 %, Minimum measured 2.814 %, P-gp concentration 2 uM, R squared 0.022, P-gp inhibitor Elacidar
  EC90: < 0.023 µM
Dengue virus type 2 [5]; Baseline response 0 %, Hill slope -0.067, Maximum measured 2.038 %, Maximum response 100 %, Minimum measured 0.482 %, P-gp concentration 2 uM, R squared 0.032, P-gp inhibitor Elacidar
  EC90: < 0.005 µM
Dengue virus type 2 [5]; Baseline response 0 %, Hill slope -0.192, Maximum measured 3.988 %, Maximum response 100 %, Minimum measured 0.35 %, P-gp concentration 2 uM, R squared 0.503, P-gp inhibitor Elacidar
  EC90: < 0.005 µM
Dengue virus type 2 [5]; veroe6/tmprss2
  EC50: < 0.005 µM
Zika virus [1]
  EC50: > 6.25 µM
Zika virus [1]; Vero C1008, Baseline response 0 %, Hill slope 1.919, Maximum measured 39.533 %, Maximum response 100 %, Minimum measured 0.481 %, R squared 0.987
  EC90: > 6.25 µM
Zika virus [1]; Vero C1008, Baseline response 0 %, Hill slope 2.194, Maximum measured 37.889 %, Maximum response 100 %, Minimum measured -0.884 %, R squared 0.976
  EC90: > 6.25 µM
Zika virus [1]; Vero C1008, Baseline response 0 %, Hill slope 2.262, Maximum measured 0.1 %, Maximum response 100 %, Minimum measured -2.404 %, R squared 0.714
  EC90: > 6.25 µM
Zika virus [6]
  EC50: > 6.25 µM
Zika virus [6]; Baseline response 0 %, Hill slope 1.255, Maximum measured 36.243 %, Maximum response 100 %, Minimum measured 3.426 %, P-gp concentration 500 nM, R squared 0.925, P-gp inhibitor CP100356
  EC90: > 6.25 µM
Dengue virus type 2 [2]; EC90 CI (lower) 26.978 uM, EC90 CI (upper) 1103.75 uM, Hill slope 1.671, Maximum measured 3.58 %, Minimum measured 0.058 %, R squared 0.662
  EC90: < 0.391 µM
Dengue virus type 2 [2]; Hill slope 0.149, Maximum measured 0.277 %, Minimum measured 0.08 %, R squared 0.031
  EC90: < 0.391 µM
Dengue virus type 2 [2]; Hill slope 0.294, Maximum measured 5.954 %, Minimum measured 0.022 %, R squared 0.035
  EC90: < 0.391 µM
Dengue virus type 2 [2]; Dengue virus, Vero C1008
  EC50: < 0.391 µM
Dengue virus type 2 [2]; Dengue virus, Vero C1008, Hill slope -0.103, Maximum measured 0.223 %, Minimum measured 0.035 %, R squared 0.026
  EC90: < 0.391 µM
Dengue virus type 2 [3]
  EC50: < 0.01 µM

## NCc1ccc(-c2ncc(OCC3CCNCC3)nc2-c2ccc(-c3ccoc3)cc2)cc1
Zika virus [4]; Zika virus, VeroE6/TMPRSS2
  EC50: 0.111 µM
  EC90: 16.5 µM
Dengue virus type 2 [5]; Dengue virus, VeroE6/TMPRSS2
  EC50: 1 µM
Dengue virus type 2 [5]; Dengue virus, VeroE6/TMPRSS2, Baseline response 0 %, Hill slope -0.497, Maximum measured 90.326 %, Maximum response 100 %, Minimum measured 29.879 %, P-gp concentration 2 uM, R squared 0.819, P-gp inhibitor Elacidar
  EC90: > 16.7 µM
Zika virus [7]
  EC50: > 50 µM
Zika virus [7]; VeroE6/TMPRSS2, Maximum measured 394.841 %, Minimum measured 61.013 %
  EC90: > 50 µM
Dengue virus type 2 [8]; VeroE6/TMPRSS2
  EC50: 16.1 µM
Dengue virus type 2 [8]; VeroE6/TMPRSS2, Baseline response -26.43 %, Hill slope -19.353, Maximum measured 64.866 %, Maximum response 59.51 %, Minimum measured 1.549 %, R squared 0.583
  EC90: > 16.7 µM
Dengue virus type 2 [3]
  EC50: > 5.5 µM

## O=C(Nc1ccc2c(c1)B(O)OC2)c1cccc(OCc2c(Cl)cccc2Cl)c1
Zika virus [7]
  EC50: 1.09 µM
Zika virus [7]; VeroE6/TMPRSS2, Baseline response 0 %, Hill slope -0.477, Maximum measured 91.001 %, Maximum response 100 %, Minimum measured 4.308 %, R squared 0.689
  EC90: > 16.7 µM
Dengue virus type 2 [8]; VeroE6/TMPRSS2
  EC50: 0.155 µM
  EC90: 0.735 µM
Dengue virus type 2 [3]
  EC50: > 1.9 µM

## c1cc(C2CCN(Cc3c[nH]c4ccccc34)CC2)c2ccncc2c1
Zika virus [4]; Baseline response 0 %, Hill slope -0.578, Maximum measured 88.327 %, Maximum response 100 %, Minimum measured 9.758 %, P-gp concentration 2 uM, R squared 0.671, P-gp inhibitor Elacidar
  EC90: > 50 µM
Zika virus [4]; Zika virus, VeroE6/TMPRSS2
  EC90: 25.3 µM
Dengue virus type 2 [5]; Baseline response 0 %, EC90 CI (lower) 0 uM, EC90 CI (upper) 0.011 uM, Hill slope -0.624, Maximum measured 68.2 %, Maximum response 100 %, Minimum measured 5.474 %, P-gp concentration 2 uM, R squared 0.683, P-gp inhibitor Elacidar
  EC90: 1.58 µM
Dengue virus type 2 [5]; Baseline response 0 %, EC90 CI (lower) 0 uM, EC90 CI (upper) […] uM, Hill slope -0.4, Maximum measured 23.467 %, Maximum response 30 %, Minimum measured 3.547 %, P-gp concentration 2 uM, R squared 0.817, P-gp inhibitor Elacidar
  EC90: 16.1 µM
Dengue virus type 2 [5]; veroe6/tmprss2
  EC50: 0.047 µM and < 0.023 µM
Zika virus [7]
  EC50: 7.01 µM
Zika virus [7]; VeroE6/TMPRSS2, Baseline response 0 %, Hill slope -0.669, Maximum measured 111.623 %, Maximum response 100 %, Minimum measured 18.809 %, R squared 0.805
  EC90: > 50 µM
Dengue virus type 2 [8]; VeroE6/TMPRSS2
  EC50: 0.336 µM
Dengue virus type 2 [8]; VeroE6/TMPRSS2, Baseline response 0 %, EC90 CI (lower) 0 uM, EC90 CI (upper) 0.803 uM, Hill slope -0.593, Maximum measured 141.896 %, Maximum response 100 %, Minimum measured 11.317 %, R squared 0.319
  EC90: 13.6 µM
Dengue virus type 2 [2]; Dengue virus, Vero C1008
  EC50: 2.69 µM
Dengue virus type 2 [2]; Dengue virus, Vero C1008, EC90 CI (lower) 0.253 uM, EC90 CI (upper) 1.159 uM, Hill slope -1.373, Maximum measured 83.881 %, Minimum measured 4.274 %, R squared 0.884
  EC90: 13.3 µM
Dengue virus type 2 [3]
  EC50: 27 µM

## O=C(NCC(F)(F)F)c1cc(Cl)c(F)cc1NS(=O)(=O)c1ccc(Oc2ccccc2Cl)cc1
Zika virus [1]
  EC50: > 50 µM
Zika virus [1]; Vero C1008, Maximum measured -0.734 %, Minimum measured -10.955 %
  EC90: > 50 µM
Dengue virus type 2 [2]; Dengue virus, Vero C1008
  EC50: 3.79 µM
Dengue virus type 2 [2]; Dengue virus, Vero C1008, EC90 CI (lower) 2.885 uM, EC90 CI (upper) 3.374 uM, Hill slope -11.236, Maximum measured 107.639 %, Minimum measured 0.022 %, R squared 0.991
  EC90: 4.61 µM
Dengue virus type 2 [3]
  EC50: > 1.9 µM

## c1ccc2sc(C3CCN(Cc4c[nH]c5ccccc45)CC3)nc2c1
Zika virus [4]; Baseline response 0 %, EC90 CI (lower) 0.007 uM, EC90 CI (upper) 47.388 uM, Hill slope -1.134, Maximum measured 126.957 %, Maximum response 50 %, Minimum measured 1.357 %, P-gp concentration 2 uM, R squared 0.32, P-gp inhibitor Elacidar
  EC90: 28.6 µM
Zika virus [4]; Zika virus, VeroE6/TMPRSS2
  EC50: 2.33 µM
Zika virus [4]; Zika virus, VeroE6/TMPRSS2, Baseline response 0 %, Hill slope -0.408, Maximum measured 80.807 %, Maximum response 100 %, Minimum measured 15.814 %, P-gp concentration 2 uM, R squared 0.363, P-gp inhibitor Elacidar
  EC90: > 16.7 µM
Zika virus [4]; veroe6/tmprss2
  EC50: 4.11 µM
Dengue virus type 2 [5]; Baseline response 0 %, EC90 CI (lower) 2.225 uM, EC90 CI (upper) 16.418 uM, Hill slope -4.495, Maximum measured 125.314 %, Maximum response 100 %, Minimum measured 8.4 %, P-gp concentration 2 uM, R squared 0.582, P-gp inhibitor Elacidar
  EC90: 16.1 µM
Dengue virus type 2 [5]; Dengue virus, VeroE6/TMPRSS2
  EC90: 16.6 µM
Dengue virus type 2 [5]; veroe6/tmprss2
  EC50: 2.19 µM and 9.85 µM
Dengue virus type 2 [3]
  EC50: > 18 µM

## CCCC[C@H](NC(C)=O)C(=O)N[C@H](C(=O)NCc1ccc(C(N)=O)cc1)c1ccc(OCc2ccccc2)cc1
Zika virus [4]; Zika virus, VeroE6/TMPRSS2
  EC50: > 50 µM
Zika virus [4]; Zika virus, VeroE6/TMPRSS2, Maximum measured 173.346 %, Minimum measured 74.645 %, P-gp concentration 2 uM, P-gp inhibitor Elacidar
  EC90: > 50 µM
Zika virus [4]; Zika virus, VeroE6/TMPRSS2, Baseline response 0 %, Hill slope 0.304, Maximum measured 106.185 %, Maximum response 100 %, Minimum measured 70.235 %, P-gp concentration 2 uM, R squared 0.184, P-gp inhibitor Elacidar
  EC90: > 50 µM
Dengue virus type 2 [5]; Baseline response 0 %, Hill slope -0.583, Maximum measured 72.286 %, Maximum response 50 %, Minimum measured 22.28 %, P-gp concentration 2 uM, R squared 0.087, P-gp inhibitor Elacidar
  EC90: > 50 µM
Dengue virus type 2 [5]; Dengue virus, VeroE6/TMPRSS2, Baseline response 0 %, Hill slope -0.364, Maximum measured 95.574 %, Maximum response 100 %, Minimum measured 8.045 %, P-gp concentration 2 uM, R squared 0.69, P-gp inhibitor Elacidar
  EC90: > 50 µM
Dengue virus type 2 [3]
  EC50: 5.3 µM
